Earlier results as cited in patent US12090168B2, “Glucose glycans for treating urea cycle disorders” (DSM Nutritional Products, LLC, priority 2017, dated 2024).

Conditions: administered in combination with lactulose

## CO[C@H]1/C=C/O[C@@]2(C)Oc3c(C)c(O)c4c(O)c(c5c(nc6cc(C)ccn65)c4c3C2=O)NC(=O)/C(C)=C\C=C\[C@H](C)[C@H](O)[C@@H](C)[C@@H](O)[C@@H](C)[C@H](OC(C)=O)[C@@H]1C [rifaximin]
  reduction of episodes of OHE: approximately 50%
